The assay deals with T1, ABP (amantadine-binding protein).
T1 construct: de novo designed homo-trimer; GSHMG//[…]
Briefly: X-ray crystal structure ([…] Å) and neutron structure ([…] Å) of the complex; NMR titration with TITAN line shape fitting (Kd). Details: species or system synthetic construct.

As a reminder, the Kd is the concentration at which binding is half-saturated. A higher Kd goes with lower affinity.

Structures are written as SMILES.

With `NC12CC3CC(CC(C3)C1)C2` [amantadine], binding was put at a Kd of 24.1 ± 2.7 µM.
